Publication PMC11836358 (Nature Communications, 2025)
Where two headings read alike, the source gives them in different places.

B1: BmrA E504A mutant (Bacillus subtilis multidrug ABC transporter) (natural protein)
chain: MPTKKQKSKSKLKPFFALVRRTNPSYGKLAFALALSVVTTLVSLLIPLLTKQLVDGFSMSNLSGTQIGLIALVFFVQAGLSAYATYALNYNGQKIISGLRELLWKKLIKLPVSYFDTNASGETVSRVTNDTMVVKELITTHISGFITGIISVIGSLTILFIMNWKLTLLVLVVVPLAALILVPIGRKMFSISRETQDETARFTGLLNQILPEIRLVKASNAEDVEYGRGKMGISSLFKLGVREAKVQSLVGPLISLVLMAALVAVIGYGGMQVSSGELTAGALVAFILYLFQIIMPMGQITTFFTQLQKSIGATERMIEILAEEEEDTVTGKQIENAHLPIQLDRVSFGYKPDQLILKEVSAVIEAGKVTAIVGPSGGGKTTLFKLLERFYSPTAGTIRLGDEPVDTYSLESWREHIGYVSQESPLMSGTIRENICYGLERDVTDAEIEKAAEMAYALNFIKELPNQFDTEVGERGIMLSGGQRQRIAIARALLRNPSILMLDAATSSLDSQSEKSVQQALEVLMEGRTTIVIAHRLSTVVDADQLLFVEKGEITGRGTHHELMASHGLYRDFAEQQLKMNADLENKAG
notes: BmrA, efflux pump of Bacillus subtilis, type-IV MDR ABC transporter; each monomer has 1 TMD and 1 NBD; Homodimer; the plasmid pET15b encodes the mutant fused to a 6-histidine tag at the N-terminal; also called E504A^apo; E504A^R6G; source: E. coli C43(DE3)∆AcrB, pET15b; membranes solubilised in Triton X100, purified (two Ni-NTA steps, Superdex 200) in DDM/sodium cholate

Assays:
BmrA [1] = target: T1, BmrA (Bacillus subtilis, UniProt O06967, E504A); assay: biochemical
BmrA [2] = target: T1, BmrA; assay: biochemical; remark: listed apart in the source
[3] = target: the molecule itself; assay: cryo-EM structure; purified BmrA E504A at 25 µM in 20 mM HEPES-NaOH pH 7.5, 100 mM NaCl, DDM/sodium cholate; 0, 25, 70, 100 µM or 5 mM ATP-Mg2+, with or without 100 µM R6G, or with Hœchst33342; inward-facing and outward-facing dimers reconstructed

Molecule | Kd (BmrA [1]) [µM] | also measured
CCOc1ccc(-c2nc3cc(-c4nc5cc(N6CCN(C)CC6)ccc5[nH]4)ccc3[nH]2)cc1 [Hœchst33342] | 9.6 ± 1.3 | –
Nc1ncnc2c1ncn2[C@@H]1O[C@H](COP(=O)(O)OP(=O)(O)OP(=O)(O)O)[C@@H](O)[C@H]1O [ATP] | – | Kd (BmrA [2]): 154 ± 49 µM
COc1cccc2c1C(=O)c1c(O)c3c(c(O)c1C2=O)C[C@@](O)(C(=O)CO)C[C@@H]3O[C@H]1C[C@H](N)[C@H](O)[C@H](C)O1 [Doxorubicin] | 7.3 ± 2.2 | –
B1 | – | binding result [3]: binds
